Legend:
Test in all cases: relative viability (nuclei count vs DMSO), 5 days (fraction); higher = more cells survive
[1] = compound: Nc1ncn([C@H]2C[C@H](O)[C@@H](CO)O2)c(=O)n1 [Decitabine] + CC(=O)c1c(C)c2cnc(Nc3ccc(N4CCNCC4)cn3)nc2n(C2CCCC2)c1=O [Palbociclib] (partner 0.5 µM)
Summary of the method: (§1)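 A single step with final 0.05% Triton X-100, 1% formaldehyde and 1 ug/ml Hoechst fixed the cells and stained nuclei 5 days after treatment. Lung cancer cell lines in 1536-well plates had been treated by pin tool the day after seeding with one drug alone or a fixed anchor-drug dose plus five library-drug doses (not always all listed) in √10 steps, and nuclei were counted on 4× images. Relative viability is the ratio of nuclei in treated wells to nuclei in vehicle wells, taken as the median of duplicate plates.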

[2] = compound: O=C(C[C@H]1NCCC[C@@H]1O)Cn1cnc2cc(Br)c(Cl)cc2c1=O (racemic) [Halofuginone] + Nc1ncn([C@H]2C[C@H](O)[C@@H](CO)O2)c(=O)n1 [Decitabine] (partner 2 µM)
Summary of the method: as §1

[3] = compound: COc1cc2c(Oc3ccc4[nH]c(C)cc4c3F)ncnc2cc1OCCCN1CCCC1 [Cediranib] + N=C(N)NC(=N)NCCc1ccccc1 [Phenformin] (partner 250 µM)
Summary of the method: as §1

[4] = compound: COc1cc2c(Oc3ccc4[nH]c(C)cc4c3F)ncnc2cc1OCCCN1CCCC1 [Cediranib] + CC(=O)c1c(C)c2cnc(Nc3ccc(N4CCNCC4)cn3)nc2n(C2CCCC2)c1=O [Palbociclib] (partner 0.5 µM)
Summary of the method: as §1

Row | Cell Line | relative viability ([1]; first compound 0.04 µM) | relative viability ([1]; first compound 0.1265 µM) | relative viability ([1]; first compound 0.4 µM) | relative viability ([1]; first compound 1.265 µM) | relative viability ([1]; first compound 4 µM) | relative viability ([2]; first compound 0.001 µM) | relative viability ([2]; first compound 0.003162 µM) | relative viability ([2]; first compound 0.01 µM) | relative viability ([2]; first compound 0.03162 µM) | relative viability ([2]; first compound 0.1 µM) | relative viability ([3]; first compound 0.04 µM) | relative viability ([3]; first compound 0.4 µM) | relative viability ([3]; first compound 1.265 µM) | relative viability ([3]; first compound 4 µM) | relative viability ([4]; first compound 0.04 µM) | relative viability ([4]; first compound 0.1265 µM) | relative viability ([4]; first compound 0.4 µM) | relative viability ([4]; first compound 1.265 µM) | relative viability ([4]; first compound 4 µM) | relative viability ([3]; first compound 0.1265 µM)
1 | HCC-827 | 0.231 | 0.311 | 0.294 | 0.262 | 0.181 | 0.332 | 0.282 | 0.207 | 0.295 | 0.308 | 0.412 | 0.389 | 0.385 | 0.356 | 0.559 | 0.54 | 0.433 | 0.629 | 0.424 | 
2 | HOP-62 | 0.326 | 0.327 | 0.195 | 0.136 | 0.273 | 0.233 | 0.224 | 0.194 | 0.206 | 0.199 | 0.703 | 0.647 | 0.632 | 0.741 | 0.482 | 0.517 | 0.409 | 0.426 | 0.486 | 0.607
3 | LC-2-ad | 0.498 | 0.538 | 0.48 | 0.365 | 0.463 | 0.7 | 0.857 | 0.806 | 0.892 | 0.687 | 0.595 | 0.612 | 0.569 | 0.554 | 0.527 | 0.55 | 0.456 | 0.494 | 0.399 | 0.497
4 | LCLC-97TM1 | 0.207 | 0.197 | 0.171 | 0.152 | 0.22 | 0.263 | 0.222 | 0.203 | 0.19 | 0.227 | 0.501 | 0.421 | 0.49 | 0.449 | 0.277 |  | 0.194 | 0.211 | 0.277 | 0.288
5 | LCLC-103H | 0.429 | 0.49 | 0.444 | 0.442 | 0.501 | 0.773 | 0.78 | 0.735 | 0.711 | 0.728 | 0.319 | 0.298 | 0.344 | 0.352 | 0.494 | 0.47 | 0.511 | 0.469 | 0.521 | 0.39
6 | LK-2 | 0.655 | 0.66 | 0.327 | 0.236 | 0.238 | 0.309 | 0.261 | 0.337 | 0.328 | 0.286 | 0.38 | 0.35 | 0.418 | 0.29 | 0.998 | 0.693 | 0.687 | 0.764 | 0.724 | 0.175
7 | LOU-NH91 | 0.514 | 0.592 | 0.588 | 0.507 | 0.415 | 0.809 | 0.818 | 0.787 | 0.802 | 0.817 | 0.688 | 0.696 | 0.625 | 0.673 | 0.55 | 0.561 | 0.51 | 0.513 | 0.533 | 0.986
8 | LU99A | 0.39 | 0.434 | 0.445 | 0.321 | 0.291 | 0.783 | 1.01 | 0.846 | 0.769 | 0.879 | 0.726 | 0.75 | 0.734 | 0.924 | 0.422 |  | 0.361 | 0.408 | 0.518 | 0.589
9 | LXF-289 | 0.539 | 0.418 | 0.346 | 0.27 | 0.238 | 0.395 | 0.393 | 0.383 | 0.418 | 0.381 | 0.565 | 0.487 | 0.49 | 0.549 | 0.617 |  | 0.569 | 0.566 | 0.609 | 0.404
10 | NCI-H23 | 0.413 | 0.372 | 0.295 | 0.28 | 0.271 | 0.333 | 0.314 | 0.313 | 0.346 | 0.273 | 0.756 | 0.724 | 0.683 | 0.867 | 0.585 | 0.601 | 0.547 | 0.429 | 0.56 | 
11 | NCI-H322M | 0.439 | 0.485 | 0.554 | 0.479 | 0.463 | 0.71 | 0.657 | 0.681 | 0.657 | 0.53 | 0.879 | 0.728 | 0.849 | 0.8 | 0.46 | 0.589 | 0.464 | 0.492 | 0.524 | 0.862
12 | NCI-H358 | 0.179 | 0.118 | 0.114 | 0.13 | 0.135 | 0.227 | 0.239 | 0.2 | 0.135 | 0.119 | 0.336 | 0.299 | 0.222 | 0.358 | 0.142 | 0.177 | 0.129 | 0.13 | 0.14 | 0.41
13 | NCI-H441 | 0.214 | 0.198 | 0.183 | 0.138 | 0.205 | 0.29 | 0.262 | 0.262 | 0.275 | 0.234 | 0.658 | 0.802 | 0.763 | 0.991 | 0.202 | 0.258 | 0.22 | 0.205 | 0.275 | 
14 | NCI-H460 | 0.174 | 0.289 | 0.185 | 0.0847 | 0.0625 | 0.47 | 0.509 | 0.518 | 0.501 | 0.0841 | 0.528 | 0.527 | 0.512 | 0.56 | 0.196 | 0.175 | 0.21 | 0.161 | 0.202 | 0.576
15 | NCI-H596 |  |  |  |  |  | 1.01 | 0.961 | 1.09 | 1.01 | 0.775 | 0.723 | 0.722 |  | 0.718 |  |  |  |  |  | 0.703
16 | NCI-H1563 |  |  |  |  |  |  |  |  |  |  | 0.63 | 0.676 | 0.651 | 0.665 |  |  |  |  |  | 0.851
17 | NCI-H1623 |  |  |  |  |  |  |  |  |  |  | 0.587 | 0.553 | 0.595 | 0.567 |  |  |  |  |  | 
18 | NCI-H1648 | 0.275 | 0.246 | 0.296 | 0.287 | 0.31 | 0.518 | 0.525 | 0.512 | 0.559 | 0.506 |  |  |  |  | 0.28 | 0.242 | 0.287 | 0.307 | 0.633 | 
19 | NCI-H2228 | 0.385 | 0.463 | 0.215 | 0.204 | 0.169 |  |  |  |  |  | 0.278 | 0.278 | 0.285 | 0.319 | 0.648 | 1.02 | 0.752 | 0.615 | 0.787 | 0.272

Reference: the supplement of paper PMC10307832
